The text below walks through data of ChEMBL document CHEMBL4011620, “Design and Discovery of N-(2-Methyl-5'-morpholino-6'-((tetrahydro-2H-pyran-4-yl)oxy)-[3,3'-bipyridin]-5-yl)-3-(trifluoromethyl)benzamide (RAF709): A Potent, Selective, and Efficacious RAF Inhibitor Targeting RAS Mutant Cancers” (J Med Chem, 2017).

Each structure is given as a SMILES string. Values after ≈ are worked out from the molar mass of the structure shown.

Data set [1] can be described thus: Intrinsic clearance in human liver microsomes. Type of data set: ADME, microsome. To be noted: read-out: CLH.
In data set [2] the target is T1, RAF proto-oncogene serine/threonine-protein kinase (Homo sapiens, UniProt P04049). The experiment in a line: Inhibition CRAF in human Calu6 cells assessed as decrease in MEK phosphorylation after 2 hrs by HTRF method. Type of data set: cell-based. (In general: TR-FRET usually uses a lanthanide donor and a delayed reading to cut background.)
Data set [3] in a line: Apparent permeability across basolateral to apical side in human Caco2 cells at pH 7.4 by LC/MS/MS analysis. To be noted: Caco-2, pH 7.4. (Caco-2 cells form a polarised layer with tight junctions and transporters.)
The subject of another data set is Calu-6. The data set is described as follows: Antiproliferative activity against human Calu6 cells harboring KRAS Q61K mutant assessed as reduction cell viability after 72 hrs by CellTiter-Glo assay. Format: functional, cell-based. To be noted: Calu-6, 72 h.
Data set [4] in a line: Apparent permeability across apical to basolateral side in human Caco2 cells at pH 7.4 by LC/MS/MS analysis. To be noted: Caco-2, pH 7.4.
Data set [5] can be described thus: Solubility of compound at pH 6.8 by shake-flask assay. To be noted: buffer.
Data set [6] can be described thus: Intrinsic clearance in rat liver microsomes. Format: ADME, microsome. To be noted: read-out: CLH. On the technique in general: Microsomes from liver hold many membrane-bound enzymes, among them those of drug oxidation.
For data set [7], the target named is T1, RAF proto-oncogene serine/threonine-protein kinase. The experiment in a line: Activation of CRAF in human Calu6 cells assessed as increase in MEK phosphorylation at 3 uM after 2 hrs by FRET assay. Format: cell-based.
Data set [8] has as its target RAF proto-oncogene serine/threonine-protein kinase (Homo sapiens, UniProt P04049, Y340E/Y341E). The experiment in a line: Inhibition of CRAF Y340E/Y341E mutant (unknown origin) using human MEK1 K97R mutant as substrate pretreated for 30 mins followed by substrate addition measured after 40 mins by alphascreen assay.
Data set [9] deals with Platelet-derived growth factor receptor alpha (Homo sapiens) (UniProt P16234). The experiment in a line: Binding affinity to human PDGFRalpha (330 to 640 residues) expressed in mammalian expression system at 1 uM by kinome scan assay relative to control.
Data set [10] concerns Serine/threonine-protein kinase B-raf (Homo sapiens), P15056 [V600E]. The data set is described as follows: Binding affinity to human BRAF V600E mutant (429 to 741 residues) expressed in mammalian expression system at 1 uM by kinome scan assay relative to control.
Data set [11] is described as follows: AUC in Sprague-Dawley rat at 3 mg/kg, po. Format: ADME, organism-based. To be noted: in vivo.
Data set [12] can be described thus: Oral bioavailability in Sprague-Dawley rat at 3 mg/kg. Type of data set: ADME, organism-based. To be noted: in vivo.
The target in data set [13] is Serine/threonine-protein kinase B-raf (Homo sapiens, UniProt P15056). The experiment in a line: Binding affinity to human BRAF (429 to 741 residues) expressed in mammalian expression system at 1 uM by kinome scan assay relative to control.
A short description of data set [14]: Cmax in Sprague-Dawley rat at 3 mg/kg, po. Type of data set: ADME, organism-based. Also on record: dose 3 mg/kg, route oral. To be noted: in vivo.
Data set [15] can be described thus: Clearance in Sprague-Dawley rat 1 mg/kg, iv or 3 mg/kg, po. To be noted: in vivo. Type of data set: ADME, organism-based.

RAF proto-oncogene serine/threonine-protein kinase (Homo sapiens, UniProt P04049, Y340E/Y341E), sequence (P04049 whole entry Y340E/Y341E, the tested form may be a part): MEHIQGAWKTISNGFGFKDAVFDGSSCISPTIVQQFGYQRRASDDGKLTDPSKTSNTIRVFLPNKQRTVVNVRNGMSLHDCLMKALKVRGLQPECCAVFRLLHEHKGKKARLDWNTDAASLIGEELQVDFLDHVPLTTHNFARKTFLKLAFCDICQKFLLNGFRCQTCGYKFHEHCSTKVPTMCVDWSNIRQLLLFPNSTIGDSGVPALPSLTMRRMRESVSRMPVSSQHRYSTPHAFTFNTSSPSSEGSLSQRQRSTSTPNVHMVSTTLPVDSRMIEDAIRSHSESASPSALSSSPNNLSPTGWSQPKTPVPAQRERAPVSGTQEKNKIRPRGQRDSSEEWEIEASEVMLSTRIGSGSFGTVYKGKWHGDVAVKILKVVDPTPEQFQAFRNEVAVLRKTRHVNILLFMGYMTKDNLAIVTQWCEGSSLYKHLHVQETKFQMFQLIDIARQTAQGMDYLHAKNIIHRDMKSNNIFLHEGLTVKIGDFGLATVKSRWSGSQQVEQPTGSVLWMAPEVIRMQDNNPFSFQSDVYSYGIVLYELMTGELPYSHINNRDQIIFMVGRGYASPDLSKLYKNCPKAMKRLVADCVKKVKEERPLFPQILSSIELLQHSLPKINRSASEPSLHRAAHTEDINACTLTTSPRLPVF
T1 sequence (P04049 whole entry): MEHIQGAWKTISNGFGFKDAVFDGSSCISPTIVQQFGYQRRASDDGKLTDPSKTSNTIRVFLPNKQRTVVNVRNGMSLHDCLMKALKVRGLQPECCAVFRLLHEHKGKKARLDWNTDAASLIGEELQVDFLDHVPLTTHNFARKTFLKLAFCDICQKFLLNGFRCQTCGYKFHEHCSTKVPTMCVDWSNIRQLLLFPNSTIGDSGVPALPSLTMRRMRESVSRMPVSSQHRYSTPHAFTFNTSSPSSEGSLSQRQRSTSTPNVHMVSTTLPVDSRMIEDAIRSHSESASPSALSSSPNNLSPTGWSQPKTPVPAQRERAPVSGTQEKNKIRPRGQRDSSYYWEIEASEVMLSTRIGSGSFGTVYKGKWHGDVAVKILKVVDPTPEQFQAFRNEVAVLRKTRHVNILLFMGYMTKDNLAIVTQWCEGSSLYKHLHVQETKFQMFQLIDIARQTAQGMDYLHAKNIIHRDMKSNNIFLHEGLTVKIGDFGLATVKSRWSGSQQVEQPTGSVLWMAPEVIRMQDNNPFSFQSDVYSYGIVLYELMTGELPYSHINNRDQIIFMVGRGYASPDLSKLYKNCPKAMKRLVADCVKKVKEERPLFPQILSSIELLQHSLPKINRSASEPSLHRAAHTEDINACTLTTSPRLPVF
Platelet-derived growth factor receptor alpha (Homo sapiens), sequence (P16234 whole entry, the tested form may be a part): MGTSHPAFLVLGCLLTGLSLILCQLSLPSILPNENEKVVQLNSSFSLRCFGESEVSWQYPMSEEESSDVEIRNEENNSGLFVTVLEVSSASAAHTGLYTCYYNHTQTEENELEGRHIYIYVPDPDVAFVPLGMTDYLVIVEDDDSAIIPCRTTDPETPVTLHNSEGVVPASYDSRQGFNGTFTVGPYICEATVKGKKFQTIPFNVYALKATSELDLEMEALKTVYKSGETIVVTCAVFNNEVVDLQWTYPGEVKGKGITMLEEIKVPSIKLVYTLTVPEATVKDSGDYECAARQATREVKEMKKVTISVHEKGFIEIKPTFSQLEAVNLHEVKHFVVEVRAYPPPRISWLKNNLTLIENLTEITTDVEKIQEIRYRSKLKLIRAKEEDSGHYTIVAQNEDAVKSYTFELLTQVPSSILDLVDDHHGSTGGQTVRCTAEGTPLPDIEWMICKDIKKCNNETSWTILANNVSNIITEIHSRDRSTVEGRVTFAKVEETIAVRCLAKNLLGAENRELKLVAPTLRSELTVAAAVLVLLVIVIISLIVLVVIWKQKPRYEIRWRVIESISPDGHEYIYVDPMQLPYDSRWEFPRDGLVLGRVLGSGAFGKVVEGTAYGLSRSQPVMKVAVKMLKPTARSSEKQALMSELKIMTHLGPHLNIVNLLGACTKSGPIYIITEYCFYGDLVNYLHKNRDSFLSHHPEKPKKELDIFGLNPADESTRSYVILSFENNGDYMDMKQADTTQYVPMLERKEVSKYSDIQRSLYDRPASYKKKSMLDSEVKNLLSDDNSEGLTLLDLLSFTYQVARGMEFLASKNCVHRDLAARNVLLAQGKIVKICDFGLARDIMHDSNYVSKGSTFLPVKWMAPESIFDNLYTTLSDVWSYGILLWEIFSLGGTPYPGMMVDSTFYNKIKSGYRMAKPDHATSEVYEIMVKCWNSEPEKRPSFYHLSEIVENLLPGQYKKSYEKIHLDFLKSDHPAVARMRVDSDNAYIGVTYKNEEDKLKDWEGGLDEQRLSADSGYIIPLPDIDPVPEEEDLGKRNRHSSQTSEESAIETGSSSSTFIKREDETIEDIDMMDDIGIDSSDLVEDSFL
Serine/threonine-protein kinase B-raf, sequence (P15056 whole entry, the tested form may be a part): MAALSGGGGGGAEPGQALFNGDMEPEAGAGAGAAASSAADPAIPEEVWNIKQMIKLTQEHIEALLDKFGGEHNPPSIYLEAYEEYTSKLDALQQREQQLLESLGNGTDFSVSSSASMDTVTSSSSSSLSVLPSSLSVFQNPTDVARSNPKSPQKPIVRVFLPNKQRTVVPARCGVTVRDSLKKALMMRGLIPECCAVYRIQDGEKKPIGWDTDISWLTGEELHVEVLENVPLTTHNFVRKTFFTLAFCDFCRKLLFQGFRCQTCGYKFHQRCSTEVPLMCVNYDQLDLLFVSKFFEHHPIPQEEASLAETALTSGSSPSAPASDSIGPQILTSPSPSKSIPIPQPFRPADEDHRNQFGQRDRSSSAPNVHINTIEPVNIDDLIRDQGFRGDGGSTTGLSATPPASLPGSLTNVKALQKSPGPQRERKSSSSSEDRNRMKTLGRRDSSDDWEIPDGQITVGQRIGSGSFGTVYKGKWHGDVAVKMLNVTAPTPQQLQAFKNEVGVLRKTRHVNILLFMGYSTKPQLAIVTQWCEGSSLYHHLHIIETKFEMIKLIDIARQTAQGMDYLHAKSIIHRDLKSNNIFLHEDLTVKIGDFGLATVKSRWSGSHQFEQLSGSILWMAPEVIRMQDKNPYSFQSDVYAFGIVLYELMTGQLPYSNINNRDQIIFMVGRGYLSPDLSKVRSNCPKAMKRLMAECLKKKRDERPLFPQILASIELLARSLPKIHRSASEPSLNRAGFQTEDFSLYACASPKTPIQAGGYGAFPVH
Serine/threonine-protein kinase B-raf (Homo sapiens), P15056 [V600E], sequence (P15056 whole entry V600E, the tested form may be a part): as the sequence (P15056 whole entry, the tested form may be a part) above, with V600E counted along it

On to `Cc1ccc(NC(=O)c2cccc(C(F)(F)F)c2)cc1-c1cn(C)c(=O)c(N2CCOCC2)n1`, for which the microsomal CLint in data set [1] turned out to be 110 µL/min/mg. Besides, the half-maximal effective concentration (EC50) in data set [2] was 0.2 µM; with Calu-6 it was 4.1 µM. Also, the Papp B→A in data set [3] came to 16 ×10⁻⁶ cm/s. In addition, the apparent permeability from apical to basolateral (Papp A→B) in data set [4] stood at 21 ×10⁻⁶ cm/s. The compound further registered a thermodynamic solubility in data set [5] of 190 µM (≈ 89.8 µg/mL).

`Cc1ccc(NC(=O)c2cccc(C(F)(F)F)c2)cc1-c1cc(N2CCOCC2)ncn1`: the values for the microsomal CLint in data set [1] and in data set [6] were 43 µL/min/mg and 79 µL/min/mg, respectively. Moreover, the Papp B→A in data set [3] was 38 ×10⁻⁶ cm/s. Besides, in the data set on Calu-6, the 50% effective concentration (EC50) is 5.2 µM. The Papp A→B in data set [4] was found to be 19 ×10⁻⁶ cm/s. In data set [5], this compound displayed a thermodynamic solubility of 16 µM (≈ 7.08 µg/mL).

`CCCS(=O)(=O)Nc1ccc(F)c(C(=O)c2c[nH]c3ncc(-c4ccc(Cl)cc4)cc23)c1F` [VEMURAFENIB]: the result in data set [7] was Active.

In the case of `Cc1ccc(NC(=O)c2cccc(C(F)(F)F)c2)cc1-c1ccnc(N2CCOCC2)c1`, the EC50 in [2] amounted to 0.2 µM; in the data set on Calu-6, 0.7 µM. In addition, in data set [3], the Papp B→A turned out to be 1.8 ×10⁻⁶ cm/s. In data set [5], this compound yielded a thermodynamic solubility below 2 µM.

For the compound `Cc1ncc(NC(=O)c2ccnc(C(F)(F)F)c2)cc1-c1cc(N2CCOCC2)c(=O)n(C)c1`, in data set [1], the microsomal CLint was below 7.7 µL/min/mg. Further, the results for the EC50 (in [2]; in the data set on Calu-6) were 3.96 µM and above 30 µM, respectively. The Papp B→A in [3] came out at 39 ×10⁻⁶ cm/s. In addition, the IC50 in data set [8] was 0.001 µM. For the same compound, in [4], the apparent permeability from apical to basolateral (Papp A→B) is 3 ×10⁻⁶ cm/s. The same compound registered a solubility (thermodynamic) in data set [5] of 1040 µM (≈ 492 µg/mL).

As for `Cc1ccc(C(=O)Nc2cccc(C(C)(C)C)c2)cc1-c1cc(N2CCOCC2)ncn1`, the microsomal CLint in [1] is 170 µL/min/mg; in data set [6], 210 µL/min/mg. Further, the EC50 in data set [2] was 0.2 µM; in the data set on Calu-6, 6.4 µM. In data set [3], the apparent permeability from basolateral to apical (Papp B→A) came out at 15 ×10⁻⁶ cm/s. Also, the IC50 in [8] came out at 0.0005 µM. Moreover, in data set [4], the Papp A→B came out at 15 ×10⁻⁶ cm/s. The compound further came in with a solubility (thermodynamic) in data set [5] of 20 µM (≈ 8.61 µg/mL).

Turning to `Cc1ccc(C(=O)Nc2cccc(C(F)(F)F)c2)cc1-c1cc(N2CCOCC2)ncn1`, the 50% effective concentration (EC50) in data set [2] turned out to be 0.7 µM; in the data set on Calu-6, 3.1 µM. Moreover, the 50% inhibitory concentration (IC50) in data set [8] was found to be 0.002 µM.

With `COc1ncc(-c2cc(NC(=O)c3cccc(C(F)(F)F)c3)cnc2C)cc1N1CCOCC1`, the apparent permeability from basolateral to apical (Papp B→A) in data set [3] came to 14 ×10⁻⁶ cm/s. Moreover, the EC50 in the data set on Calu-6 was 1.6 µM. The apparent permeability from apical to basolateral (Papp A→B) in data set [4] was found to be 16 ×10⁻⁶ cm/s. The same compound displayed a thermodynamic solubility in data set [5] below 2 µM.

For the compound `Cc1ncc(NC(=O)c2cccc(C(F)(F)F)c2)cc1-c1cc(N2CCOCC2)c(=O)n(C)c1`, the microsomal CLint in data set [1] is below 7.7 µL/min/mg. Further, the concentration giving a half-maximal response (EC50) in [2] worked out at 0.46 µM; in the data set with Calu-6 it was 1.8 µM. In addition, the Papp B→A in data set [3] is 43 ×10⁻⁶ cm/s. In addition, the Papp A→B in [4] came to 7 ×10⁻⁶ cm/s. The compound also gave a thermodynamic solubility in data set [5] of 20 µM (≈ 9.45 µg/mL).

Take `Cc1ncc(NC(=O)c2cccc(C(F)(F)F)c2)cc1-c1cnc(OCCO)c(N2CCOCC2)c1`: the Papp B→A in data set [3] is 45 ×10⁻⁶ cm/s. Also, the concentration giving a half-maximal response (EC50) in the data set on Calu-6 was 2.5 µM. In [4], the apical-to-basolateral permeability (Papp A→B) came to 5 ×10⁻⁶ cm/s. For the same compound, in [5], the solubility (thermodynamic) stood at 24 µM (≈ 12.1 µg/mL).

With `Cc1ncc(NC(=O)c2cccc(C(F)(F)F)c2)cc1-c1cnc(OC(C)C)c(N2CCOCC2)c1`, the EC50 in the data set on Calu-6 worked out at 2.9 µM. In [5], this compound yielded a thermodynamic solubility below 2 µM.

Consider `Cc1ccc(NC(=O)c2cccc(C(F)(F)F)c2)cc1-c1cc(N2CCOCC2)c(=O)n(C)c1`, for which the Activity in data set [9] is 89%; in [10] it was above 99%; in [13], above 99%. The results for the microsomal CLint in data set [1] and in [6] were 51 µL/min/mg and 46 µL/min/mg, respectively. The apparent permeability from basolateral to apical (Papp B→A) in [3] was 22 ×10⁻⁶ cm/s. For the same compound, in [11], the area under the curve (AUC) stood at 0.438 µM·h. In [12], this compound gave a bioavailability of 22%. Moreover, the EC50 in the data set with Calu-6 was determined as 0.5 µM. Also, in data set [14], the highest concentration (Cmax) was determined as 150 nM. Besides, the Papp A→B in data set [4] stood at 20 ×10⁻⁶ cm/s. This compound displayed a solubility (thermodynamic) in data set [5] of 70 µM (≈ 33 µg/mL). The same compound had a clearance in data set [15] of 53 mL/min/kg.

The EC50 is the concentration giving half of the maximal effect. The term Papp B→A denotes the apparent permeability from the basolateral to the apical side of a cell layer. The Papp A→B is the apparent permeability from the apical to the basolateral side of a cell layer. The term solubility (thermodynamic) denotes the concentration in solution at equilibrium with solid. What is called IC50 is the midpoint of a concentration-inhibition curve. The term AUC denotes the area under the concentration-time curve, a measure of exposure. The term bioavailability denotes dose-corrected exposure relative to a reference, in per cent. The low end stands for poor availability, the high end for good availability. In general, Cmax refers to the highest concentration seen after dosing.
